Measured values published in US20220281841A1, “ETHYNYLHETEROCYCLES AS RHO-ASSOCIATED COILED-COIL KINASE (ROCK) INHIBITORS” (Angion Biomedica Corp., priority 2019, published 2022).

How the values were obtained:
[1] = target: T1, ROCK1 (Homo sapiens, UniProt Q13464); experiment: ROCK1 kinase binding affinity, DiscoverX KINOMEscan KdELECT; conditions: equilibrium dissociation constant, 11-point 3-fold dilution series
T1 construct: purchased DiscoverX (KINOMEscan KdELECT service); host or cells: E. coli BL21-derived (T7 phage) or HEK-293
T1 sequence (Q13464 whole entry): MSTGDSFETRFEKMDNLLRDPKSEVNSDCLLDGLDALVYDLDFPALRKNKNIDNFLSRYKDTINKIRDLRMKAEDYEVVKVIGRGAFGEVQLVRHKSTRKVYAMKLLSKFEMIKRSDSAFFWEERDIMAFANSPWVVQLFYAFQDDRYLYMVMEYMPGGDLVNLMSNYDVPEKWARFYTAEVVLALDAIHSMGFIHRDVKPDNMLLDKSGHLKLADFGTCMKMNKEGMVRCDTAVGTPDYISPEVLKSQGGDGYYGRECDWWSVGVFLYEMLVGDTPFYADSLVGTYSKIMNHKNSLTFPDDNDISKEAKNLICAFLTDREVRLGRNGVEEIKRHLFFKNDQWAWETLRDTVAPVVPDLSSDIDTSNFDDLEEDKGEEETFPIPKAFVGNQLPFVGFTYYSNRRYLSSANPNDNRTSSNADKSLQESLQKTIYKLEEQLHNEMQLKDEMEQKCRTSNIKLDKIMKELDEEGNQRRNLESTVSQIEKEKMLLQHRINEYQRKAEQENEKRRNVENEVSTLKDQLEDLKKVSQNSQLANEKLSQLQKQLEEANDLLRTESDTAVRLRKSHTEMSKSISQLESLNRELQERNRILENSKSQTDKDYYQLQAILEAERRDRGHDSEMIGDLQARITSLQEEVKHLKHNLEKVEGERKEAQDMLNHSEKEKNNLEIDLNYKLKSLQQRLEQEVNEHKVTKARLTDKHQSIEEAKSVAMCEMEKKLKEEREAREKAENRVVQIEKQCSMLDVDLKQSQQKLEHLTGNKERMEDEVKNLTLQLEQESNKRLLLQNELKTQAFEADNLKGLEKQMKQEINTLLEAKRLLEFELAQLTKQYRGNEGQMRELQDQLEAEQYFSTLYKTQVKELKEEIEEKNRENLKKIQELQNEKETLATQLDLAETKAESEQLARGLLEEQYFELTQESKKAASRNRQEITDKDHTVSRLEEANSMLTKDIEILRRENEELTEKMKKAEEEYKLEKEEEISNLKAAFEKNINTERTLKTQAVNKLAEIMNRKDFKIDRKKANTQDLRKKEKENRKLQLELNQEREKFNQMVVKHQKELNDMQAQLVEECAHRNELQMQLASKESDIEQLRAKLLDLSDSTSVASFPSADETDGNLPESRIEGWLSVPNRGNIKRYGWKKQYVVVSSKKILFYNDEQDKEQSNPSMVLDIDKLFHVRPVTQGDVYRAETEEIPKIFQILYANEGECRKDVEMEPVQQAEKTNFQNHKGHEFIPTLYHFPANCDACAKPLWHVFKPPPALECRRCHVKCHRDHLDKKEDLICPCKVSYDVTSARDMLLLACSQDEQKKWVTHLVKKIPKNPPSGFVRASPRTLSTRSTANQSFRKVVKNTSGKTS

[2] = target: T2, ROCK2 (Homo sapiens, UniProt O75116); experiment: ROCK2 kinase binding affinity, DiscoverX KINOMEscan KdELECT; conditions: for ROCK 2 Selectivity: ROCK2 over ROCK1, from Kd values, N/C = not calculated; for Kd: equilibrium dissociation constant, 11-point 3-fold dilution series, read-out: Kd (μM) ROCK2
T2 construct: purchased DiscoverX (KINOMEscan KdELECT service); host or cells: E. coli BL21-derived (T7 phage) or HEK-293
T2 sequence (O75116 whole entry): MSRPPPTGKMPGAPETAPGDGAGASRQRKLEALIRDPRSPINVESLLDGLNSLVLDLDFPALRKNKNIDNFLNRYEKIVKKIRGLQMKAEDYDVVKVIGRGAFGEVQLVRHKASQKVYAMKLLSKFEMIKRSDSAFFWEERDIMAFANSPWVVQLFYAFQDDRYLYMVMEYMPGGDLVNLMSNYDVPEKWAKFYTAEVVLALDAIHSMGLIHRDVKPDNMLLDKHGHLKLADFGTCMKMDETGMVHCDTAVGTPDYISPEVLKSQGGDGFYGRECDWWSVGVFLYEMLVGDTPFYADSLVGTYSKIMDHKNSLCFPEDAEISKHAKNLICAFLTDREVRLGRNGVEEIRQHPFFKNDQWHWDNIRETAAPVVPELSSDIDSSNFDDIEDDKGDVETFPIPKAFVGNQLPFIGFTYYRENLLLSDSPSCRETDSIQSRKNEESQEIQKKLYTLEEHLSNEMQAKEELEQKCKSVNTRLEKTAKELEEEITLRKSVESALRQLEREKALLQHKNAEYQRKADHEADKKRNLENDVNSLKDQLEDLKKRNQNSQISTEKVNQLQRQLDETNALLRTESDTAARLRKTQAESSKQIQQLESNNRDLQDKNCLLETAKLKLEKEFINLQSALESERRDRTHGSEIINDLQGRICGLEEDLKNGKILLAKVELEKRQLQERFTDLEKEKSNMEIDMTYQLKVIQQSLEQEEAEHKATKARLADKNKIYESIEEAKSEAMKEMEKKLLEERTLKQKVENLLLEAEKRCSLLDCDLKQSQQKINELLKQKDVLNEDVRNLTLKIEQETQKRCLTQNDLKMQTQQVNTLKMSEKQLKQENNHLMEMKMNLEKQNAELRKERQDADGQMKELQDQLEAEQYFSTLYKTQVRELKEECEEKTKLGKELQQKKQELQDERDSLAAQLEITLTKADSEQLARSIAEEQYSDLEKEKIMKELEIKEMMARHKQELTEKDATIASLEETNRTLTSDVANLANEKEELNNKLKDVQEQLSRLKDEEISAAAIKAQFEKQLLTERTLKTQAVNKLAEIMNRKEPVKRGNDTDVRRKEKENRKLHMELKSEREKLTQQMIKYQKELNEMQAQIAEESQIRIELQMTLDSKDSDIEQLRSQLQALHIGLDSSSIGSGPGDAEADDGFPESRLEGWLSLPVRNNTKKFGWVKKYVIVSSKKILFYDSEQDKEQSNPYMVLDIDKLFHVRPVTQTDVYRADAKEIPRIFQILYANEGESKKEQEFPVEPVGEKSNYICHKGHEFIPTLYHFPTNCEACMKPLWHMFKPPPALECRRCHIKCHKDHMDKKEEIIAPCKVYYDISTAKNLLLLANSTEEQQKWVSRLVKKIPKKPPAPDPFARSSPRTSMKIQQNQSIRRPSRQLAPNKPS

[3] = test system: fibroblasts; conditions: fibroblasts treated with KD025; cited from earlier work
[4] = test system: murine autoimmune disease; conditions: cited from earlier work
[5] = 12-16 weeks of dosing in healthy volunteers and patients; cited from earlier work

SMILES	Kd [1] [µM]	ROCK 2 Selectivity [2]	Kd [2] [µM]	expression of profibrotic mRNA [3]	expression of pro-inflammatory, fibrosis-linked cytokines; autoimmune disease [4]	hemodynamic or other side effects [5]
COc1cccc(C2CCN(c3nccc(-c4nccc(C#Cc5ccc6[nH]ncc6c5)n4)n3)C2)c1 (stereo not drawn) [Ex. 70, 5-((2′-(3-(3-Methoxyphenyl)pyrrolidin-1-yl)-[2,4′-bipyrimidin]-4-yl)ethynyl)-1H-indazole]	6.1	27.7	0.22	–	–	–
Fc1ccc(C2CCN(c3nccc(-c4nccc(C#Cc5ccc6[nH]ncc6c5)n4)n3)C2)cc1 (stereo not drawn) [Ex. 71, 5-((2′-(3-(4-Fluorophenyl)pyrrolidin-1-yl)-[2,4′-bipyrimidin]-4-yl)ethynyl)-1H-indazole]	13	36.1	0.36	–	–	–
CC(C)NC(=O)COc1cccc(-c2nc(Nc3ccc4[nH]ncc4c3)c3ccccc3n2)c1 [KD025]	–	–	–	decreased expression of several profibrotic mRNA including that of CTGF	decreased expression of pro-inflammatory, fibrosis-linked cytokines and mitigated murine autoimmune disease	no hemodynamic or other side effects
